Test results: US6589771B1, “Methods for arousing dormant bacteria” (Immunom Technologies, Inc., priority 1999, dated 2003)

Key:
[1] = system: spores of the genera Bacillus and Clostridium; settings: substance added to the buffer; neutral suspensions heated at 65° C. for 20 minutes; cited from earlier work
P. aeruginosa = assay: Growth of duplex culture of P. aeruginosa with antibiotic after sequential extractions; format: cell-based; settings: Dulbecco's PBS pH 7.3
Experimental: Separate cultures containing both dormant and vegetative cells of P. aeruginosa or E. coli were centrifuged and the pellets resuspended in an equal amount of Dulbecco's PBS pH 7.3 for serial extractions of 20 min. followed by different periods of adjustment at 37° C.

L. monocytogenes [2] = assay: Growth (CFUs/mL or grow-out hrs.) of dormant L. monocytogenes on agar with antibiotic after sequential PBS extractions; format: cell-based; settings: for Growth in presence of ampicillin: PBS pH 7.3
Experimental: (§1) A culture containing 100% dormant bacteria was microfuged and the supernatant replaced with an equal volume of PBS, pH 7.3 and incubated at 37° C. After 20 minutes, the pellet was again recovered by centrifugation and resuspended in fresh PBS.
A 4 year old dormant broth culture of L. monocytogenes was centrifuged and the supernatant replaced with an equal volume of Dulbecco's PBS, 1×, 4×, or 10×, pH 7.3 or 6.1 for 10, 20, or 40 min. extraction periods, followed by different periods of adjustment at 37° C. This was repeated and the pellets held for various times in buffer (adjustment period) before plating on agar. Inoculated agars were held at 37° C. for various lengths of time (grow-out period).

L. monocytogenes [3] = assay: Dialysis plus dilution of dormant L. monocytogenes, growth in presence of antibiotic; format: cell-based; settings: 18 hrs. adjustment period
Experimental: An aliqout of culture was dialyzed against 250 volumes of PBS, pH 7.3 at 37° C. with stirring for 40 min. After an adjustment period of 18 hrs., the retentate was diluted serially 1:5 in PBS, pH 7.3, and streaked on agar.

L. monocytogenes [4] = assay: Antibiotic tolerance of vegetative and aroused dormant L. monocytogenes (classification); format: cell-based; settings: both native vegetative and aroused dormant cells
L. caseii [5] = assay: Dialysis plus dilution of dormant L. caseii, growth in presence of antibiotic; format: cell-based; settings: for Growth in presence of 60 IU Amp/mL: dialysis, 18 hrs. adjustment period
L. monocytogenes [6] = assay: L. monocytogenes arousal by serial dilutions in PBS, growth on antibiotic agar; format: cell-based; settings: PBS pH 7.3
L. plantarum ATCC 14917 = assay: Dialysis of dormant L. plantarum ATCC 14917, tolerance to antibiotic; format: cell-based; settings: retentate after four changes of 250 volumes of PBS, 44 hrs. of dialysis, no adjustment period
L. caseii [7] = assay: Growth of dormant L. caseii on agar with antibiotic after sequential extractions; format: cell-based; settings: for Growth in presence of 60 IU/mL ampicillin: PBS pH 7.3
Experimental: as §1
A 2 year old dormant broth culture of L. caseii was centrifuged and the supernatant replaced with an equal volume of Dulbeccos' PBS, 1× or 4× at pH 7.3, or water for 20 min. followed by different periods of adjustment at 37° C.

S. aureus = assay: Vancomycin tolerance of aroused dormant and vegetative S. aureus; format: cell-based; settings: aroused dormant forms after heat-killing of vegetative forms
Text: Dormant cells of S. aureus could be enumerated and classified in the presence of their vegetative forms by heat-killing the sensitive vegetative forms while preserving the more resistant dormant forms. […] Before heating, 4×10^7 CFUs/mL were viable, after heating, no viable cells were detected until the dormant cells were aroused by osmolal downshift gradients.

[8] = dilution after adjustment 1:125
[9] = dilution after adjustment: None

C[C@H](N)C(=O)O [L-alanine]
100%: spores that germinate [1]

N[C@@H](Cc1ccc(O)cc1)C(=O)O [L-tyrosine]
100%: spores that germinate [1]

Nc1ncnc2c1ncn2[C@@H]1O[C@H](CO)[C@@H](O)[C@H]1O [adenosine]
100%: spores that germinate [1]

CC1(C)S[C@@H]2[C@H](NC(=O)[C@H](N)c3ccccc3)C(=O)N2[C@H]1C(=O)O [ampicillin]
0 CFUs/mL: Growth in presence of ampicillin (L. monocytogenes [2]; Control (no extraction)) | Growth in presence of 60 IU Amp/mL (L. caseii [5]; dilution after adjustment 1:5) | Growth in presence of 60 IU Amp/mL (L. caseii [5]; dilution after adjustment 1:25) | Growth in presence of 60 IU Amp/mL (L. caseii [5]; [8]) | Growth in presence of 60 IU Amp/mL (L. caseii [5]; [9]) | Growth in presence of 60 IU/mL ampicillin (L. caseii [7]; 1st-5th 20 min. extraction) | Growth in presence of 60 IU/mL ampicillin (L. caseii [7]; 6th 20 min. + 72 hrs. @ 37° C.) | Growth in presence of 60 IU/mL ampicillin (L. caseii [7]; 6th 20 min. + 96 hrs. @ 37° C.) | Growth in presence of 60 IU/mL ampicillin (L. caseii [7]; Control (no extraction))
10^3 CFUs/mL: Growth in presence of 60 IU Amp/mL (L. monocytogenes [3]; [9])
24 h: Growth in presence of 60 IU amp/mL (L. monocytogenes [2]; Dulbecco's 4X PBS pH 7.3, 3 × 20 min., adjustment time 48 hrs.) | Growth in presence of 60 IU amp/mL (L. monocytogenes [2]; Dulbecco's 4X PBS pH 7.3, 3 × 20 min., adjustment time 72 hrs.) | Growth in presence of 60 IU amp/mL (L. monocytogenes [2]; Dulbecco's 10X PBS pH 7.3, 3 × 20 min., adjustment time 48 hrs.) | Growth in presence of 60 IU amp/mL (L. monocytogenes [2]; Dulbecco's 10X PBS pH 7.3, 3 × 20 min., adjustment time 72 hrs.) | Growth in presence of 60 IU amp/mL (L. monocytogenes [2]; Dulbecco's PBS pH 6.1, 5 × 20 min., adjustment time 120 hrs.) | Growth in presence of 60 IU amp/mL (L. monocytogenes [2]; Dulbecco's PBS pH 6.1, 7 × 20 min., adjustment time 96 hrs.) | Growth in presence of 60 IU amp/mL (L. monocytogenes [2]; Dulbecco's PBS pH 7.3, 3 × 40 min., adjustment time 96 hrs.) | Growth in presence of 60 IU amp/mL (L. monocytogenes [2]; Dulbecco's PBS pH 7.3, 5 × 10 min., adjustment time 96 hrs.)
10^5 CFUs/mL: Growth in presence of ampicillin (L. monocytogenes [2]; 4th 20 min. extraction) | Growth in presence of ampicillin (L. monocytogenes [2]; 5th 20 min. extraction) | Growth in presence of ampicillin (L. monocytogenes [2]; 6th 20 min. extraction) | Growth in presence of 60 IU Amp/mL (L. monocytogenes [3]; dilution after adjustment 1:25) | Growth in presence of 60 IU Amp/mL (L. monocytogenes [3]; [8])
not tolerant: Tolerance to ampicillin (L. caseii [5]; L. caseii ATCC 393 aroused by dialysis pH 7.3, dilutions 1:5 and 1:5, adjustment period 124 hours at 37° C.) | Tolerance to ampicillin (L. plantarum ATCC 14917)
72 h: Growth in presence of 60 IU amp/mL (P. aeruginosa; 3 × 20 min., adjustment time 24 hrs.)
48 h: Growth in presence of 60 IU amp/mL (P. aeruginosa; 6 × 20 min., adjustment time 0 hrs.) | Growth in presence of 60 IU amp/mL (L. monocytogenes [2]; Dulbecco's PBS pH 7.3, 1 × 20 min., adjustment time 0 hrs.) | Growth in presence of 60 IU amp/mL (L. monocytogenes [2]; Dulbecco's PBS pH 7.3, 3 × 20 min., adjustment time 0 hrs.) | Growth in presence of 60 IU amp/mL (L. monocytogenes [2]; Dulbecco's PBS pH 7.3, 3 × 20 min., adjustment time 48 hrs.) | Growth in presence of 60 IU amp/mL (L. monocytogenes [2]; Dulbecco's PBS pH 7.3, 3 × 20 min., adjustment time 72 hrs.) | Growth in presence of 60 IU amp/mL (L. monocytogenes [2]; Dulbecco's PBS pH 7.3, 6 × 10 min., adjustment time 0 hrs.) | Growth in presence of 60 IU amp/mL (L. monocytogenes [2]; Dulbecco's PBS pH 7.3, 6 × 20 min., adjustment time 0 hrs.) | Growth in presence of 60 IU amp/mL (L. monocytogenes [2]; Dulbecco's PBS pH 7.3, 6 × 20 min., adjustment time 48 hrs.) | Growth in presence of 60 IU amp/mL (L. monocytogenes [2]; Dulbecco's PBS pH 7.3, 6 × 20 min., adjustment time 72 hrs.) | Growth in presence of 60 IU amp/mL (L. monocytogenes [2]; Dulbecco's PBS pH 7.3, 7 × 40 min., adjustment time 96 hrs.) | Growth in presence of 60 IU amp/mL (L. monocytogenes [2]; Dulbecco's PBS pH 7.3, 9 × 20 min., adjustment time 0 hrs.) | Growth in presence of 60 IU amp/mL (L. monocytogenes [2]; Dulbecco's PBS pH 7.3, 9 × 20 min., adjustment time 48 hrs.) | Growth in presence of 60 IU amp/mL (L. monocytogenes [2]; Dulbecco's PBS pH 7.3, 9 × 20 min., adjustment time 72 hrs.) | Growth in presence of 60 IU amp/mL (L. caseii [7]; L. caseii ATCC 393, Dulbecco's PBS pH 7.3, 7 × 20 min., adjustment time 144 hrs.)
10^4 CFUs/mL: Growth in presence of ampicillin (L. monocytogenes [2]; 1st 20 min. extraction) | Growth in presence of ampicillin (L. monocytogenes [2]; 2nd 20 min. extraction) | Growth in presence of ampicillin (L. monocytogenes [2]; 3rd 20 min. extraction) | Growth in presence of 60 IU Amp/mL (L. monocytogenes [3]; dilution after adjustment 1:5)
144 h: Periods of adjustment required for growth on: 60 IU Amp (L. monocytogenes [6]; serial dilutions 1:10) | Periods of adjustment required for growth on: 60 IU Amp (L. monocytogenes [6]; serial dilutions 1:100) | Periods of adjustment required for growth on: 60 IU Amp (L. monocytogenes [6]; serial dilutions 1:125) | Periods of adjustment required for growth on: 60 IU Amp (L. monocytogenes [6]; serial dilutions 1:1000)
tolerant: Tolerance to 60 IU of ampicillin per mL (L. monocytogenes [4])

CN(C)[C@@H]1C(O)=C(C(N)=O)C(=O)[C@@]2(O)C(O)=C3C(=O)c4c(O)cccc4[C@@](C)(O)[C@H]3C[C@@H]12 [tetracycline]
144 h: Periods of adjustment required for growth on: 30 μg TC (L. monocytogenes [6]; serial dilutions 1:10) | Periods of adjustment required for growth on: 30 μg TC (L. monocytogenes [6]; serial dilutions 1:100) | Periods of adjustment required for growth on: 30 μg TC (L. monocytogenes [6]; serial dilutions 1:1000)

CN[C@H](CC(C)C)C(=O)N[C@H]1C(=O)N[C@@H](CC(N)=O)C(=O)N[C@H]2C(=O)N[C@H]3C(=O)N[C@H](C(=O)N[C@H](C(=O)O)c4cc(O)cc(O)c4-c4cc3ccc4O)[C@H](O)c3ccc(c(Cl)c3)Oc3cc2cc(c3O[C@@H]2O[C@H](CO)[C@@H](O)[C@H](O)[C@H]2O[C@H]2C[C@](C)(N)[C@H](O)[C@H](C)O2)Oc2ccc(cc2Cl)[C@H]1O [vancomycin]
showed tolerance: Tolerance to 30 μg vancomycin/mL (S. aureus)
